{"source": "patent US7888390B2", "about": "“Preparation of platinum(II) complexes” (Platco Technologies (Proprietary) Limited, priority 2003, dated 2011)", "type_in_all_cases": "cell-based", "key": {"cervical cancer cells": {"tested_on": "cervical cancer cells", "assay": "Anticancer testing, inhibition of cervical cancer cells, 5% foetal calf serum medium", "details": "5% foetal calf serum as medium"}, "colon cancer cells": {"tested_on": "colon cancer cells", "assay": "Anticancer testing, inhibition of colon cancer cells, medium containing 10 mM glutathione", "details": "100 μM"}, "breast cancer": {"tested_on": "breast cancer", "assay": "Anticancer testing, inhibition on breast cancer, medium containing 10 mM glutathione", "details": "100 μM solution"}}, "data": [{"smiles": "CSCCCc1nccn1C.O=C([O-])C(=O)[O-].[Pt+2]", "note": "[Example 6, oxalato(1-methyl-2-methylthiopropylimidazole)platinum(II)]", "values": [{"measurement": "percentage inhibition on cervical cancer cells", "setting": "cervical cancer cells; 10 μM solution", "value": 88.6, "unit": "%"}, {"measurement": "percentage inhibition on cervical cancer cells", "setting": "cervical cancer cells; 100 μM solution", "value": 97.7, "unit": "%"}, {"measurement": "inhibition of colon cancer cells", "setting": "colon cancer cells", "value": 85, "unit": "%"}, {"measurement": "inhibition on breast cancer", "setting": "breast cancer", "value": 72, "unit": "%"}]}, {"smiles": "N.N.[Cl][Pt][Cl]", "note": "[cisplatin]", "values": [{"measurement": "percentage inhibition on cervical cancer cells", "setting": "cervical cancer cells; 10 μM solution", "value": 85.4, "unit": "%"}, {"measurement": "percentage inhibition on cervical cancer cells", "setting": "cervical cancer cells; 100 μM solution", "value": 95.3, "unit": "%"}, {"measurement": "inhibition of colon cancer cells", "setting": "colon cancer cells", "value": 48, "unit": "%"}, {"measurement": "inhibition on breast cancer", "setting": "breast cancer", "value": 10, "unit": "%"}]}]}
